Measured values: ChEMBL document CHEMBL3627608, “Crystal structures of human RIP2 kinase catalytic domain complexed with ATP-competitive inhibitors: Foundations for understanding inhibitor selectivity” (Bioorg Med Chem, 2015)

Legend:
[1] = biological target: Homeodomain-interacting protein kinase 1 (Homo sapiens) (UniProt Q86Z02); test: Inhibition of HIPK1 (unknown origin) at 10 uM after 120 mins P33 radiolabeled kinase activity assay
[2] = biological target: T1, Protein kinase C zeta type (Homo sapiens) (UniProt Q05513); test: Inhibition of PKCzeta (unknown origin) at 10 uM after 120 mins P33 radiolabeled kinase activity assay
T1 sequence (whole entry): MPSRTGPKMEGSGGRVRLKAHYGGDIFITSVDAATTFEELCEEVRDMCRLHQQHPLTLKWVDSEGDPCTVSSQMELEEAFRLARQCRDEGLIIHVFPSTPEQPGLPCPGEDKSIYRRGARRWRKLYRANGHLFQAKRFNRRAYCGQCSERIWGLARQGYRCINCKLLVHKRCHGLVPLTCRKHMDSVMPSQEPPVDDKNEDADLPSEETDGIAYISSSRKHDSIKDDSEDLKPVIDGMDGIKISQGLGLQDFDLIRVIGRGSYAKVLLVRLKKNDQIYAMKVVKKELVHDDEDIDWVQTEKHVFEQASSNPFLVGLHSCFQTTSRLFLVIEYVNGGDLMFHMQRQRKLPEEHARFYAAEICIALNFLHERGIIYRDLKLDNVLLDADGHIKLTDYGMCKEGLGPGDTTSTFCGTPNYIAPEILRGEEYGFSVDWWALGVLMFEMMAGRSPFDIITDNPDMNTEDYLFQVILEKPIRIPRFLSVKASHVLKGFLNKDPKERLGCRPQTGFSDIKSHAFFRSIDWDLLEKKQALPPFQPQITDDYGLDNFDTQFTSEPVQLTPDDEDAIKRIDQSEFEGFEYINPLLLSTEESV

[3] = biological target: Proto-oncogene tyrosine-protein kinase receptor Ret (Homo sapiens) (UniProt P07949); test: Inhibition of RET (unknown origin) at 10 uM after 120 mins P33 radiolabeled kinase activity assay
[4] = biological target: Mitogen-activated protein kinase 9 (Homo sapiens) (UniProt P45984); test: Inhibition of JNK2 (unknown origin) at 10 uM after 120 mins P33 radiolabeled kinase activity assay
[5] = biological target: Ribosomal protein S6 kinase alpha-4 (Homo sapiens) (UniProt O75676); test: Inhibition of MSK2 (unknown origin) at 10 uM after 120 mins P33 radiolabeled kinase activity assay
[6] = biological target: Non-receptor tyrosine-protein kinase TYK2 (Homo sapiens) (UniProt P29597); test: Inhibition of TYK2 (unknown origin) at 10 uM after 120 mins P33 radiolabeled kinase activity assay
[7] = biological target: T2, Serine/threonine-protein kinase ULK3 (Homo sapiens) (UniProt Q6PHR2); test: Inhibition of ULK3 (unknown origin) at 10 uM after 120 mins P33 radiolabeled kinase activity assay
T2 sequence (whole entry): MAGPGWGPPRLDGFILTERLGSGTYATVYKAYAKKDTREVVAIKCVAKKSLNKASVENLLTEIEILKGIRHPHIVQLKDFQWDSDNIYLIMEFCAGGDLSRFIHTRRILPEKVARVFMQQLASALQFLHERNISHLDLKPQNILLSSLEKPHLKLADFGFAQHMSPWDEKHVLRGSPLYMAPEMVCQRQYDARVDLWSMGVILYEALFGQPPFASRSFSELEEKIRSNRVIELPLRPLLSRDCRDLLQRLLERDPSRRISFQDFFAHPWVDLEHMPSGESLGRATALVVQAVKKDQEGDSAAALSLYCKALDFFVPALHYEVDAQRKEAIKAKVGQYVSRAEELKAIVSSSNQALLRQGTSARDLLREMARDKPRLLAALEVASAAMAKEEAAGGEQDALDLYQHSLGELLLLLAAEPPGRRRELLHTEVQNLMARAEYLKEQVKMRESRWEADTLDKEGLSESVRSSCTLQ

[8] = biological target: Cyclin-dependent kinase 2 (Homo sapiens) (UniProt P24941); test: Inhibition of CDK2 (unknown origin) at 10 uM after 120 mins P33 radiolabeled kinase activity assay
[9] = biological target: T3, Cytoplasmic tyrosine-protein kinase BMX (Homo sapiens) (UniProt P51813); test: Inhibition of BMX (unknown origin) at 10 uM after 120 mins P33 radiolabeled kinase activity assay
T3 sequence (whole entry): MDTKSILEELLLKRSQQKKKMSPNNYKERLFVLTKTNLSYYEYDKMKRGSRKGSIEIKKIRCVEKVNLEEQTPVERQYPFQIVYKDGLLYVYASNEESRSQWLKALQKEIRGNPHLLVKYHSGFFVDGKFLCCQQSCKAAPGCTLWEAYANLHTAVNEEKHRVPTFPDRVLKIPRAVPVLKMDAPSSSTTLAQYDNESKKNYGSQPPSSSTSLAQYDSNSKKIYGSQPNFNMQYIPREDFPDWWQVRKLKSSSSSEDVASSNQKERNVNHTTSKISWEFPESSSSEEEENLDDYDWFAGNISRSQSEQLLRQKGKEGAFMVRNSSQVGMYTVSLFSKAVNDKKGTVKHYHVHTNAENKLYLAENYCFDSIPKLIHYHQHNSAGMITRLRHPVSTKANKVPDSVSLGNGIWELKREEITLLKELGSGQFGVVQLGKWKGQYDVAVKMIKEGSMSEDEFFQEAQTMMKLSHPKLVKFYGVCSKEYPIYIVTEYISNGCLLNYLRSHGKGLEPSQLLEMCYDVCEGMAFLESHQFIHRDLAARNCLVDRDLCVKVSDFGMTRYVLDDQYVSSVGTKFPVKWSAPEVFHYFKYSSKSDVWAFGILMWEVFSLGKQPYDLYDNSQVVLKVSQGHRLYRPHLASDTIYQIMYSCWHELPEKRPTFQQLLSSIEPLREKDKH

[10] = biological target: T4, Calcium/calmodulin-dependent protein kinase type IV (Homo sapiens) (UniProt Q16566); test: Inhibition of CAMK4 (unknown origin) at 10 uM after 120 mins P33 radiolabeled kinase activity assay
T4 sequence (whole entry): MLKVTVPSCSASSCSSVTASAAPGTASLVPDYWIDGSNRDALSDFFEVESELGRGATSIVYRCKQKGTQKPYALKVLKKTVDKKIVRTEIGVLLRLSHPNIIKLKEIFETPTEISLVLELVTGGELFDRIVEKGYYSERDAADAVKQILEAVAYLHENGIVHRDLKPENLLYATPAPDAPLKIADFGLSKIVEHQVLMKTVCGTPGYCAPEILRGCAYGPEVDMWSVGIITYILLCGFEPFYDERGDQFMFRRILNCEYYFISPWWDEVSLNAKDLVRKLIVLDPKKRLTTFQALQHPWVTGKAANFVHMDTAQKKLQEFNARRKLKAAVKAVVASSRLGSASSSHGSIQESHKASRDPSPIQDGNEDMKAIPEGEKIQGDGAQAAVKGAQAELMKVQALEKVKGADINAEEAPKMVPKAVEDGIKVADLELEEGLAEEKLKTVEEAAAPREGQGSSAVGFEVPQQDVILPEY

[11] = biological target: Cyclin-dependent kinase 1/cyclin B1 (Homo sapiens) (UniProt P06493+P14635); test: Inhibition of CDK1/cyclin B (unknown origin) at 10 uM after 120 mins P33 radiolabeled kinase activity assay; format: protein-complex assay
[12] = biological target: Casein kinase I isoform delta (Homo sapiens) (UniProt P48730); test: Inhibition of CK1delta (unknown origin) at 10 uM after 120 mins P33 radiolabeled kinase activity assay
Casein kinase I isoform delta (Homo sapiens), sequence (P48730 whole entry, looked up, canonical isoform): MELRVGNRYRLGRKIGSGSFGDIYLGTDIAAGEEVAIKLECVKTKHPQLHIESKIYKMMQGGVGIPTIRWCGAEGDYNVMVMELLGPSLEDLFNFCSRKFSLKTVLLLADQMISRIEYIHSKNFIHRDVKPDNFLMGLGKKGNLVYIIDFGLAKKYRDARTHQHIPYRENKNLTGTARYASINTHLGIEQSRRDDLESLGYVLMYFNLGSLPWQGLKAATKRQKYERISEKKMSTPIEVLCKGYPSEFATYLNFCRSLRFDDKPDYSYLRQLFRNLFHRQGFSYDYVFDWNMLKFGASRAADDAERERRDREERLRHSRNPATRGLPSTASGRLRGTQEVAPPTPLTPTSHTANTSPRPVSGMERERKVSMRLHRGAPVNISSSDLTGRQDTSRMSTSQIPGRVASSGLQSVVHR

Homeodomain-interacting protein kinase 1 (Homo sapiens), sequence (Q86Z02 whole entry, looked up): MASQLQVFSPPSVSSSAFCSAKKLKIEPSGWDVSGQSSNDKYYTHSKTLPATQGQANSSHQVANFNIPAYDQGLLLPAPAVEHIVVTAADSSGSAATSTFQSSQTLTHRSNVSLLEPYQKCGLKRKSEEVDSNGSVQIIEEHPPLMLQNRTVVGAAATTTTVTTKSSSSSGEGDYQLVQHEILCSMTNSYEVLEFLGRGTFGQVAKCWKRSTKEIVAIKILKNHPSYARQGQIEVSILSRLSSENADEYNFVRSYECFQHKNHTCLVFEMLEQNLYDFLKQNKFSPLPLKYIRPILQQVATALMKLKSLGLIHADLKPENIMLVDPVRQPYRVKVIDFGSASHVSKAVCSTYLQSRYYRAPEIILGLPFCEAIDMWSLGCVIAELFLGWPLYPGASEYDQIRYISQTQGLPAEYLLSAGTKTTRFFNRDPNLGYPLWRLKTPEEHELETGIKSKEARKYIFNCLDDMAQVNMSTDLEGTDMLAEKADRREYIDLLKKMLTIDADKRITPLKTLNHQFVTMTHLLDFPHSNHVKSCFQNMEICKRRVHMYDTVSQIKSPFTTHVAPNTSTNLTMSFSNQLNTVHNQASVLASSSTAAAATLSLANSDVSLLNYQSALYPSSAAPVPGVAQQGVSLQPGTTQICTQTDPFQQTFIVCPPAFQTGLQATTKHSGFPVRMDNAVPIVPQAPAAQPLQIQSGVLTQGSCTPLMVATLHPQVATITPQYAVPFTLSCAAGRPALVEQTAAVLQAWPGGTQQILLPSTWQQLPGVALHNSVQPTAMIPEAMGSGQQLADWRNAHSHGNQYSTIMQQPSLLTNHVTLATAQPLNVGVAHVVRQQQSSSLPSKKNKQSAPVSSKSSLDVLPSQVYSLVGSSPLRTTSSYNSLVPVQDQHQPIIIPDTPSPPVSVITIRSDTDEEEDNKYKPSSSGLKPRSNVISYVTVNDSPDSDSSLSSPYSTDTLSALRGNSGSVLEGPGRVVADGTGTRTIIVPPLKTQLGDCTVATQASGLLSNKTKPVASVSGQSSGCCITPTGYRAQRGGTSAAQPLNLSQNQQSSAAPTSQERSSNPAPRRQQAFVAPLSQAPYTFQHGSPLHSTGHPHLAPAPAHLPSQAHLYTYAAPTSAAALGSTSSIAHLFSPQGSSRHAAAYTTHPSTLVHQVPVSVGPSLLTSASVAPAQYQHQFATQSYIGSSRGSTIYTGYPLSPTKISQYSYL
Proto-oncogene tyrosine-protein kinase receptor Ret (Homo sapiens), sequence (P07949 whole entry): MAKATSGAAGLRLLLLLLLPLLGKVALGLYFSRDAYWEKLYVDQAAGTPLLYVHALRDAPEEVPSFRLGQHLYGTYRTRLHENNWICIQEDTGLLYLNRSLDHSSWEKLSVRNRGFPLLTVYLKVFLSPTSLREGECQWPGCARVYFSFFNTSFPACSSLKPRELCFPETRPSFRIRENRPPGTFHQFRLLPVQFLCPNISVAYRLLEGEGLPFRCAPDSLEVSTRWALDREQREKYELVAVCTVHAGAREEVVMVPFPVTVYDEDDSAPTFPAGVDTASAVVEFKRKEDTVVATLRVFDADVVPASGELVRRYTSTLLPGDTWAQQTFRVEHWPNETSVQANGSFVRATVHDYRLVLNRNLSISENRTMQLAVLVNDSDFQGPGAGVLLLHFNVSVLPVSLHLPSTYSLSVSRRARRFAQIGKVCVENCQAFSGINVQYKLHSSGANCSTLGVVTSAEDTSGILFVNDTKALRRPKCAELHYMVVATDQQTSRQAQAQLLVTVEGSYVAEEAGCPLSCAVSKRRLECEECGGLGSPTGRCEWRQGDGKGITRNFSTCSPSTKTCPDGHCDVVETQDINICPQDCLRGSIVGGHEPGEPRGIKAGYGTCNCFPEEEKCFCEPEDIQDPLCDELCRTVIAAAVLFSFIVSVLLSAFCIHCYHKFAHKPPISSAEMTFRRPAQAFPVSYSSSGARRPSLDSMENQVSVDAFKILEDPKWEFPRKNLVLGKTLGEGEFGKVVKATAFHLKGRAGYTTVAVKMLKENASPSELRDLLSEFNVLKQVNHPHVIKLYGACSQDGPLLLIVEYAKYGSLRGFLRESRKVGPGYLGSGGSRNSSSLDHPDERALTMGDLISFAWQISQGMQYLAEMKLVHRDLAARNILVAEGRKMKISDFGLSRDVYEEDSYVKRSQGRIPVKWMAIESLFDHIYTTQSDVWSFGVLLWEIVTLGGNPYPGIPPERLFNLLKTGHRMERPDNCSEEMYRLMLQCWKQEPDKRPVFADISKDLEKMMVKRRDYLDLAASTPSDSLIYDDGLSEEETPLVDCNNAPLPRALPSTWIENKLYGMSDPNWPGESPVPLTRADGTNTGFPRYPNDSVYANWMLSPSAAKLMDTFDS
Mitogen-activated protein kinase 9 (Homo sapiens), sequence (P45984 whole entry, looked up): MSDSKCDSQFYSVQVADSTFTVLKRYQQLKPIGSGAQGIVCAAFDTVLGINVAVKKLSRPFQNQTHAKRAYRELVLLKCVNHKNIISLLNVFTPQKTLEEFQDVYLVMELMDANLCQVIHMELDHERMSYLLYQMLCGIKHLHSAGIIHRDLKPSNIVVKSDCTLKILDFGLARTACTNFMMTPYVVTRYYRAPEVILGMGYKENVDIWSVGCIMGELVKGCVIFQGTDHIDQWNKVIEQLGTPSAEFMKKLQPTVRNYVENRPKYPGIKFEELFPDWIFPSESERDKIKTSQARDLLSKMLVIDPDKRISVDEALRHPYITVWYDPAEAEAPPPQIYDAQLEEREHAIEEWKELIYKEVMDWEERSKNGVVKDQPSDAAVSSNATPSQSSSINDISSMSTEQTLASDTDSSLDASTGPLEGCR
Ribosomal protein S6 kinase alpha-4 (Homo sapiens), sequence (O75676 whole entry, looked up): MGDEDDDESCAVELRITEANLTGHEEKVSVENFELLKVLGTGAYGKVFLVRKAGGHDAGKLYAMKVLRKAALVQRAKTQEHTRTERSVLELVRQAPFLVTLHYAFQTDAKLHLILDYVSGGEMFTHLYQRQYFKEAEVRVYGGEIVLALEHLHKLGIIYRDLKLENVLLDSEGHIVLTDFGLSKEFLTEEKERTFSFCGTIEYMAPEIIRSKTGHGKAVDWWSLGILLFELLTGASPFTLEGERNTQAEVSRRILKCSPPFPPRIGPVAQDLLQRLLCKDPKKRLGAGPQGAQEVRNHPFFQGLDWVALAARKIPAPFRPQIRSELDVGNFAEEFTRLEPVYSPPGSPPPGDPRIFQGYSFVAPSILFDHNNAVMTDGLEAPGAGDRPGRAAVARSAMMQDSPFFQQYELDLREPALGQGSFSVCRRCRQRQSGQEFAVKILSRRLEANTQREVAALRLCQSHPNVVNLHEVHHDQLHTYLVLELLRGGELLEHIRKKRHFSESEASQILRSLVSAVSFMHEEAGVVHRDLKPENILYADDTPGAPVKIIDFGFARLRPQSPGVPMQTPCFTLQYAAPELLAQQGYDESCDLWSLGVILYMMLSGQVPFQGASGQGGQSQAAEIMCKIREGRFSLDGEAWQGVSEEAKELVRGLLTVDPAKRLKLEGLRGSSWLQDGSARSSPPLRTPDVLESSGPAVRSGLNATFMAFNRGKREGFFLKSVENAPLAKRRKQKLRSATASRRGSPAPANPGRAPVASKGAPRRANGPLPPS
Cyclin-dependent kinase 1/cyclin B1 (Homo sapiens), sequence (P06493 whole entry, looked up, canonical isoform): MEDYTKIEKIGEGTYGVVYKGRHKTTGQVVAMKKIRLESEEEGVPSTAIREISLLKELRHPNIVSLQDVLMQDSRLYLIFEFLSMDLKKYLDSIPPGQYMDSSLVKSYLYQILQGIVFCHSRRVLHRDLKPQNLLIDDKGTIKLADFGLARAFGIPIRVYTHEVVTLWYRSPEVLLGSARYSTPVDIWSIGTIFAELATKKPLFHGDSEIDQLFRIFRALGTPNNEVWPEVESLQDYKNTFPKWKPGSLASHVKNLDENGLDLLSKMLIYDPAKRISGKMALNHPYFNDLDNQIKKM
Cyclin-dependent kinase 1/cyclin B1 (Homo sapiens), sequence (P14635 whole entry, looked up, canonical isoform): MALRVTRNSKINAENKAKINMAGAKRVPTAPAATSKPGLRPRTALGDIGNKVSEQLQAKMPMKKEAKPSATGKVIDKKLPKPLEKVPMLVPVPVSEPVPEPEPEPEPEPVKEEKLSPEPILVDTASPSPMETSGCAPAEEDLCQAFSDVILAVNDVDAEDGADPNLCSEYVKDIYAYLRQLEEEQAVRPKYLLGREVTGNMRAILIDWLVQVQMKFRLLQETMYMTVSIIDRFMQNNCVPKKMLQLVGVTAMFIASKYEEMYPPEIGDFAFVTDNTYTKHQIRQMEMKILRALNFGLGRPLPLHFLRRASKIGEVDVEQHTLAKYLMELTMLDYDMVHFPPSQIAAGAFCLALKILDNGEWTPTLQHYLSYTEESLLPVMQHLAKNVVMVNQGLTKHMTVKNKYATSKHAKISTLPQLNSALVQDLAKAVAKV

Compound: COCCNC(=O)c1ccc2c(c1)nc(-c1cnc(-c3ccc(Cl)cc3)[nH]1)n2CCOC
- inhibition [1]: -8.42%
- inhibition [2]: 3.68%
- inhibition [3]: 36%
- inhibition [4]: 9.13%
- inhibition [5]: 4.4%
- inhibition [6]: 13.2%
- inhibition [7]: -5.07%
- inhibition [8]: 7.06%
- inhibition [9]: 13.9%
- inhibition [10]: 6.98%
- inhibition [11]: -3.76%
- inhibition [12]: 77.8%

Compound: CS(=O)(=O)c1cccc(Nc2nccc(-c3sc(N4CCOCC4)nc3-c3cccc(NS(=O)(=O)c4c(F)cccc4F)c3)n2)c1
- inhibition [1]: 81.1%
- inhibition [2]: 7.55%
- inhibition [3]: 98%
- inhibition [4]: 13.5%
- inhibition [5]: 19.5%
- inhibition [6]: 54.8%
- inhibition [7]: 89.6%
- inhibition [8]: 75.7%
- inhibition [9]: 98%
- inhibition [10]: 29.4%
- inhibition [11]: 70.8%
- inhibition [12]: 20.5%

Compound: CC(C)(C)c1cc(NC(=O)Nc2ccc(Oc3ccncc3)cc2)no1
- inhibition [1]: 8.52%
- inhibition [2]: 5.44%
- inhibition [3]: 99.2%
- inhibition [4]: 79.8%
- inhibition [5]: 70.5%
- inhibition [6]: 9.99%
- inhibition [7]: 31.7%
- inhibition [8]: 67.3%
- inhibition [9]: 15.5%
- inhibition [10]: 15.2%
- inhibition [11]: 35.1%
- inhibition [12]: 13.5%
